Laboratory results published in PubChem BioAssay AID1963975 (Molecular Pharmacology Branch, DTP, NCI, 2024).

Test system: 624824-186-R-J2-PDC multicell spheroids, viability
Test: Anticancer human tumor 624824-186-R-J2-PDC patient-derived colon adenocarcinoma cell line growth inhibition [PI3K]
Details: for IC50: curve of first compound; for viability, T/C: stronger effect = lower value; active = viability on the fitted dose curve at most 10% of control; inactive = the rest
Summary of the method: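 Stroma-containing spheroids: tumor line, pooled-donor HUVEC, hMSC. Treatments: targeted agents with PI3K inhibitors. Dosing: clinically relevant, half-log spacing, 10 microM ceiling without known Cmax. Read-out: cell viability.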

[1] = second compound 0.0316 µM, first compound 0.0316 µM
[2] = second compound 0.0316 µM, first compound 0.1 µM
[3] = second compound 0.0316 µM, first compound 0.316 µM
[4] = second compound 0.0316 µM, first compound 1 µM
[5] = second compound 0.0316 µM, first compound 3.16 µM
[6] = second compound 0.0316 µM, first compound 10 µM
[7] = second compound 0.1 µM, first compound 0.0316 µM
[8] = second compound 0.1 µM, first compound 0.1 µM
[9] = second compound 0.1 µM, first compound 0.316 µM
[10] = second compound 0.1 µM, first compound 1 µM
[11] = second compound 0.1 µM, first compound 3.16 µM
[12] = second compound 0.1 µM, first compound 10 µM
[13] = second compound 0.316 µM, first compound 0.0316 µM
[14] = second compound 0.316 µM, first compound 0.1 µM
[15] = second compound 0.316 µM, first compound 0.316 µM
[16] = second compound 0.316 µM, first compound 1 µM
[17] = second compound 0.316 µM, first compound 3.16 µM
[18] = second compound 0.316 µM, first compound 10 µM
[19] = second compound 1 µM, first compound 0.0316 µM
[20] = second compound 1 µM, first compound 0.1 µM
[21] = second compound 1 µM, first compound 0.316 µM
[22] = second compound 1 µM, first compound 1 µM
[23] = second compound 1 µM, first compound 3.16 µM
[24] = second compound 1 µM, first compound 10 µM
[25] = second compound 3.16 µM, first compound 0.0316 µM
[26] = second compound 3.16 µM, first compound 0.1 µM
[27] = second compound 3.16 µM, first compound 0.316 µM
[28] = second compound 3.16 µM, first compound 1 µM
[29] = second compound 3.16 µM, first compound 3.16 µM
[30] = second compound 3.16 µM, first compound 10 µM
[31] = second compound 10 µM, first compound 0.0316 µM
[32] = second compound 10 µM, first compound 0.1 µM
[33] = second compound 10 µM, first compound 0.316 µM
[34] = second compound 10 µM, first compound 1 µM
[35] = second compound 10 µM, first compound 3.16 µM
[36] = second compound 10 µM, first compound 10 µM
[37] = second compound 0.0316 µM, first compound 0.00316 µM
[38] = second compound 0.0316 µM, first compound 0.01 µM
[39] = second compound 0.1 µM, first compound 0.00316 µM
[40] = second compound 0.1 µM, first compound 0.01 µM
[41] = second compound 0.316 µM, first compound 0.00316 µM
[42] = second compound 0.316 µM, first compound 0.01 µM
[43] = second compound 1 µM, first compound 0.00316 µM
[44] = second compound 1 µM, first compound 0.01 µM
[45] = second compound 3.16 µM, first compound 0.00316 µM
[46] = second compound 3.16 µM, first compound 0.01 µM
[47] = second compound 10 µM, first compound 0.00316 µM
[48] = second compound 10 µM, first compound 0.01 µM
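Note: spheroids exposed to agents for 7 days before viability read.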
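Throughout, for viability, T/C: 100% = DMSO vehicle treated spheroids.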

CC(C)NCC(C(=O)N1CCN(c2ncnc3c2C(C)CC3O)CC1)c1ccc(Cl)cc1 (stereo not given) + Cc1nc(NC(=O)N2CCCC2C(N)=O)sc1-c1ccnc(C(C)(C)C(F)(F)F)c1
> 10 µM: IC50 (second compound 0.0316 µM) | IC50 (second compound 0.1 µM) | IC50 (second compound 0.316 µM) | IC50 (second compound 1 µM) | IC50 (second compound 3.16 µM) | IC50 (second compound 10 µM)
inactive: viability, T/C [1] 88.1% | viability, T/C [2] 106% | viability, T/C [3] 72.2% | viability, T/C [4] 85% | viability, T/C [5] 93.3% | viability, T/C [6] 68.2% | viability, T/C [7] 79.3% | viability, T/C [8] 72.6% | viability, T/C [9] 85% | viability, T/C [10] 68.1% | viability, T/C [11] 76.5% | viability, T/C [12] 74.4% | viability, T/C [13] 78.2% | viability, T/C [14] 68.2% | viability, T/C [15] 77.5% | viability, T/C [16] 75.3% | viability, T/C [17] 79.6% | viability, T/C [18] 64.9% | viability, T/C [19] 64.5% | viability, T/C [20] 85.9% | viability, T/C [21] 63.4% | viability, T/C [22] 86.4% | viability, T/C [23] 76.5% | viability, T/C [24] 75.4% | viability, T/C [25] 78.2% | viability, T/C [26] 79.8% | viability, T/C [27] 81.3% | viability, T/C [28] 82.2% | viability, T/C [29] 68% | viability, T/C [30] 55.9% | viability, T/C [31] 73.5% | viability, T/C [32] 66.6% | viability, T/C [33] 58.1% | viability, T/C [34] 62.5% | viability, T/C [35] 63.7% | viability, T/C [36] 55.8%

CCN1CCN(Cc2ccc(Nc3ncc(F)c(-c4cc(F)c5nc(C)n(C(C)C)c5c4)n3)nc2)CC1 + Cc1nc(NC(=O)N2CCCC2C(N)=O)sc1-c1ccnc(C(C)(C)C(F)(F)F)c1
inactive: viability, T/C [37] 95.9% | viability, T/C [38] 92.4% | viability, T/C [1] 87.3% | viability, T/C [2] 72.8% | viability, T/C [3] 75.5% | viability, T/C [4] 102% | viability, T/C [39] 85.8% | viability, T/C [40] 81.7% | viability, T/C [7] 67.9% | viability, T/C [8] 82.8% | viability, T/C [9] 87% | viability, T/C [10] 92.8% | viability, T/C [41] 91.4% | viability, T/C [42] 79.2% | viability, T/C [13] 63.6% | viability, T/C [14] 76.6% | viability, T/C [15] 92% | viability, T/C [16] 88.7% | viability, T/C [43] 63.2% | viability, T/C [44] 77.3% | viability, T/C [19] 76.5% | viability, T/C [20] 80.2% | viability, T/C [21] 86% | viability, T/C [22] 95.2% | viability, T/C [45] 72.2% | viability, T/C [46] 93% | viability, T/C [25] 78.7% | viability, T/C [26] 68.6% | viability, T/C [27] 79.4% | viability, T/C [28] 82.4% | viability, T/C [47] 63.8% | viability, T/C [48] 66.1% | viability, T/C [31] 70.7% | viability, T/C [32] 53% | viability, T/C [33] 65.2% | viability, T/C [34] 74.9%
> 1 µM: IC50 (second compound 0.0316 µM) | IC50 (second compound 0.1 µM) | IC50 (second compound 0.316 µM) | IC50 (second compound 1 µM) | IC50 (second compound 3.16 µM) | IC50 (second compound 10 µM)

C[C@@H](NC(=O)c1ncnc(N)c1Cl)c1ncc(C(=O)Nc2cc(C(F)(F)F)c(Cl)cn2)s1 + Cc1nc(NC(=O)N2CCCC2C(N)=O)sc1-c1ccnc(C(C)(C)C(F)(F)F)c1
1.17 µM: IC50 (second compound 10 µM)
> 10 µM: IC50 (second compound 0.0316 µM) | IC50 (second compound 0.1 µM) | IC50 (second compound 0.316 µM) | IC50 (second compound 1 µM) | IC50 (second compound 3.16 µM)
inactive: viability, T/C [1] 103% | viability, T/C [2] 103% | viability, T/C [3] 91.8% | viability, T/C [4] 84.2% | viability, T/C [5] 73.2% | viability, T/C [6] 82.4% | viability, T/C [7] 80.8% | viability, T/C [8] 84.2% | viability, T/C [9] 85.7% | viability, T/C [10] 76.1% | viability, T/C [11] 84.2% | viability, T/C [12] 85.5% | viability, T/C [13] 106% | viability, T/C [14] 99.8% | viability, T/C [15] 87.7% | viability, T/C [16] 63.5% | viability, T/C [17] 76.2% | viability, T/C [18] 81.1% | viability, T/C [19] 101% | viability, T/C [20] 96.1% | viability, T/C [21] 102% | viability, T/C [22] 70.7% | viability, T/C [23] 68.3% | viability, T/C [24] 71.5% | viability, T/C [25] 87.4% | viability, T/C [26] 92.6% | viability, T/C [27] 88.8% | viability, T/C [28] 70.7% | viability, T/C [29] 58.1% | viability, T/C [30] 49.7% | viability, T/C [31] 78% | viability, T/C [32] 80.4% | viability, T/C [33] 63.4% | viability, T/C [34] 54.7% | viability, T/C [35] 38% | viability, T/C [36] 40.1%

Cn1ncc(Cl)c1-c1cc(C(=O)NC(CN)Cc2cccc(F)c2)sc1Cl (stereo not given) + Cc1nc(NC(=O)N2CCCC2C(N)=O)sc1-c1ccnc(C(C)(C)C(F)(F)F)c1
8.5 µM: IC50 (second compound 0.316 µM)
inactive: viability, T/C [1] 58.2% | viability, T/C [2] 80.2% | viability, T/C [3] 77.9% | viability, T/C [4] 82.1% | viability, T/C [5] 62.6% | viability, T/C [6] 56.1% | viability, T/C [7] 78.9% | viability, T/C [8] 84.3% | viability, T/C [9] 70.5% | viability, T/C [10] 75.2% | viability, T/C [11] 64.9% | viability, T/C [12] 49.2% | viability, T/C [13] 88.5% | viability, T/C [14] 79% | viability, T/C [15] 87% | viability, T/C [16] 80% | viability, T/C [17] 63.5% | viability, T/C [18] 47.8% | viability, T/C [19] 70.6% | viability, T/C [20] 77.8% | viability, T/C [21] 86.6% | viability, T/C [22] 74% | viability, T/C [23] 63.5% | viability, T/C [24] 46.8% | viability, T/C [25] 84.1% | viability, T/C [26] 84.2% | viability, T/C [27] 71.1% | viability, T/C [28] 62.8% | viability, T/C [29] 62.6% | viability, T/C [30] 34.7% | viability, T/C [31] 80.7% | viability, T/C [32] 73.3% | viability, T/C [33] 64% | viability, T/C [34] 66.8% | viability, T/C [35] 49.1% | viability, T/C [36] 30.9%
9.82 µM: IC50 (second compound 0.1 µM)
3.02 µM: IC50 (second compound 10 µM)
4.42 µM: IC50 (second compound 3.16 µM)
8.01 µM: IC50 (second compound 1 µM)
> 10 µM: IC50 (second compound 0.0316 µM)

Cn1ncnc1[C@H]1c2n[nH]c(=O)c3cc(F)cc(c23)N[C@@H]1c1ccc(F)cc1 + Cc1nc(NC(=O)N2CCCC2C(N)=O)sc1-c1ccnc(C(C)(C)C(F)(F)F)c1
inactive: viability, T/C (second compound 0.0316 µM, first compound 0.000316 µM) 89.5% | viability, T/C (second compound 0.0316 µM, first compound 0.001 µM) 79.8% | viability, T/C [37] 79.5% | viability, T/C [38] 106% | viability, T/C [1] 89% | viability, T/C [2] 101% | viability, T/C (second compound 0.1 µM, first compound 0.000316 µM) 91.8% | viability, T/C (second compound 0.1 µM, first compound 0.001 µM) 87.4% | viability, T/C [39] 105% | viability, T/C [40] 80.9% | viability, T/C [7] 70.2% | viability, T/C [8] 86.4% | viability, T/C (second compound 0.316 µM, first compound 0.000316 µM) 95.4% | viability, T/C (second compound 0.316 µM, first compound 0.001 µM) 92.9% | viability, T/C [41] 101% | viability, T/C [42] 88% | viability, T/C [13] 108% | viability, T/C [14] 80.4% | viability, T/C (second compound 1 µM, first compound 0.000316 µM) 88.3% | viability, T/C (second compound 1 µM, first compound 0.001 µM) 102% | viability, T/C [43] 78.1% | viability, T/C [44] 97.1% | viability, T/C [19] 101% | viability, T/C [20] 86.3% | viability, T/C (second compound 3.16 µM, first compound 0.000316 µM) 86.8% | viability, T/C (second compound 3.16 µM, first compound 0.001 µM) 78.6% | viability, T/C [45] 76.3% | viability, T/C [46] 82.9% | viability, T/C [25] 92.4% | viability, T/C [26] 82.1% | viability, T/C (second compound 10 µM, first compound 0.000316 µM) 87.5% | viability, T/C (second compound 10 µM, first compound 0.001 µM) 84.7% | viability, T/C [47] 80.3% | viability, T/C [48] 71.8% | viability, T/C [31] 77.3% | viability, T/C [32] 84.8%
> 0.1 µM: IC50 (second compound 0.0316 µM) | IC50 (second compound 0.1 µM) | IC50 (second compound 0.316 µM) | IC50 (second compound 1 µM) | IC50 (second compound 3.16 µM) | IC50 (second compound 10 µM)
